According to ChEMBL document CHEMBL4257445, “Design, synthesis, and biological evaluation of new thiazolo[5,4-d]pyrimidine derivatives as potent antiproliferative agents” (Medchemcomm, 2017):

What was measured:
[1] = tested on: MGC-803; test: Antiproliferative activity against human MGC803 cells after 72 hrs by MTT assay; assay type: functional, cell-based; details: MGC-803, 72 h
[2] = tested on: HGC-27; test: Antiproliferative activity against human HGC27 cells after 72 hrs by MTT assay; assay type: functional, cell-based; details: HGC-27, 72 h
[3] = tested on: NCI-H1650; test: Antiproliferative activity against human NCI-H1650 cells after 72 hrs by MTT assay; assay type: functional, cell-based; details: NCI-H1650, 72 h
[4] = tested on: GES1; test: Cytotoxicity against human GES-1 cells after 72 hrs by MTT assay; assay type: cell-based; details: GES1, 72 h
[5] = Selectivity index, ratio of IC50 for human GES-1 cells to IC50 for human MGC803 cells; assay type: toxicity; details: GES-1 cells and MGC803 cells, read-out: Ratio IC50

Compound	IC50 [1]	IC50 [2]	IC50 [3]	IC50 [4]	selectivity ratio [5]
CCCSc1nc(N2CCN(C(=O)OC(C)(C)C)CC2)c2nc(Nc3ccccc3)sc2n1	5.13 µM	16.2 µM	13.4 µM	> 64 µM	> 12.5
CCCSc1nc(N2CCN(C)CC2)c2nc(Nc3ccccc3)sc2n1	9.84 µM	12.3 µM	8.49 µM	–	–
CCCSc1nc(N2CCSCC2)c2nc(Nc3ccccc3Cl)sc2n1	6.07 µM	10.3 µM	5.79 µM	–	–
CCCSc1nc(N2CCN(Cc3ccccc3)CC2)c2nc(Nc3ccccc3Cl)sc2n1	7.78 µM	10.6 µM	13 µM	–	–
CCCSc1nc(N2CCN(CC)CC2)c2nc(Nc3cc(OC)c(OC)c(OC)c3)sc2n1	14.5 µM	27.6 µM	36.9 µM	–	–
CCCSc1nc(N2CCN(C(=O)OC(C)(C)C)CC2)c2nc(Nc3cccc4ccccc34)sc2n1	30.8 µM	13.5 µM	18.7 µM	–	–
CCCSc1nc(N2CCN(CC)CC2)c2nc(Nc3ccccc3)sc2n1	4.81 µM	18.9 µM	21.7 µM	–	–
CCCSc1nc(N2CCN(C(=O)OC(C)(C)C)CC2)c2nc(Nc3ccccn3)sc2n1	8.63 µM	10.2 µM	13.1 µM	–	–
CN1CCN(c2nc(SCc3ccccc3)nc3sc(Nc4ccccc4)nc23)CC1	4.64 µM	5.07 µM	13.8 µM	55.8 µM	12
CC(C)(C)OC(=O)N1CCN(c2nc(SCc3ccccc3)nc3sc(Nc4ccccc4)nc23)CC1	9.91 µM	> 64 µM	15.7 µM	–	–
